The structures appear in SMILES notation. In brackets after ≈: the same amount, converted by molar mass.

For the assay, the system named is Leukämie-Zellinie L1210. Kind of assay: in vitro cytotoxicity test, growth inhibition of cultured leukaemia cell line L1210. Type of assay: cell-based, Mäuse. The following applies: Mus musculus, 72 h; L1210 cells, 3-day incubation, cell count, by interpolation; read-out: ID₅₀ (50 % Hemmwirkdosis). As for the experimental part:
Die Saframycin-Derivate der vorliegenden Erfindungen zeigen insbesondere in vitro Zytotoxizität gegenüber Zellkulturen von Mäuse-Leukämie-Zellen L 1210 (NCI). Für die geprüften Verbindungen werden ID₅₀-Werte im Bereich von 0,1 bis 0,001 µg/ml gefunden.
Die Wirksamkeit gegen Tumoren in vitro wird mit einer kultivierten Leukämie-Zellinie L1210 (K. Kishi et al., J. Antibiot. 37, 847 (1984)) bestimmt. Die Zellen werden in Eagle's minimum essential medium (Nissui Seiyaku Co. Ltd., Tokyo) enthaltend 10 % fötales Kälberserum (Gibco Laboratories) in Suspension-Kultur gehalten. Die Zellen werden bei einer Konzentration von 3x10⁴ Zellen/ml in 24-Loch-Mikrotiterplatten (Costar) suspendiert und bei 37° in einer feuchten Atmosphäre enthaltend 5 % CO₂ in Luft 24 Stunden lang kultiviert, um exponentielles Wachstum auszulösen. Diese Kulturen werden mit einer Reihe von jeweils um den Faktor 10 verdünnten Proben Saframycin-Derivaten dieser Erfindung versetzt. Die Konzentration der Zellen wird nach 3-tägiger Inkubation durch elektrische Zählung mit einem Sysmex CC-130 Mikro-Zellzählgerät (Toa Electronics Ltd., Tokyo) bestimmt. Die Wachstumshemmung (Inhibierung I) in Prozent wird für jede Dosismenge nach der Formel I=(C3-T3)/(C3-C0)x100, worin T3 die Zellkonzentration in den Vertiefungen der Mikrotiterplatte bei einer gegebenen Verdünnung des Wirkstoffs nach 3-tägiger Inkubation, C3 die Zellkonzentration in der entsprechenden Kontroll-Inkubation und C0 die Zellkonzentration in den Vertiefungen vor der 3-tägigen Inkubation bedeuten, berechnet. ID₅₀ (50 % Hemmwirkdosis) wird durch Interpolierung bestimmt.
In the case of `CCCCN(CCCC)[C@@H](C)C(=O)NCC1C2=C(CC3C4C5=C(CC(C(C#N)N13)N4C)C(=O)C(C)=C(OC)C5=O)C(=O)C(C)=C(OC)C2=O` (stereo partly drawn) [N,N-Dibutyl-Saframycin Y₃, N,N-Di-n-butyl-Saframycin Y₃], the IC50 was determined as 0.08 µg/mL (≈ 0.118 µM).

With `COC1=C(C)C(=O)C2=C(C1=O)C1C3CC4=C(C(=O)C(OC)=C(C)C4=O)C(CNC(=O)[C@H](C)NC(=S)Nc4ccccc4)N3C(C#N)C(C2)N1C` (stereo partly drawn) [N-Phenylthiocarbamoyl-Saframycin Y₃], the IC50 turned out to be 0.1 µg/mL (≈ 0.143 µM).

On to `COC1=C(C)C(=O)C2=C(C1=O)C1C3CC4=C(C(=O)C(OC)=C(C)C4=O)C(CNC(=O)[C@H](C)NCc4ccc([N+](=O)[O-])cc4)N3C(C#N)C(C2)N1C` (stereo partly drawn) [N-p-Nitrobenzyl-Saframycin Y₃], for which the IC50 worked out at 0.0015 µg/mL (≈ 0.00215 µM).

Take `CCCCCCCCCCCCCCCC(=O)N[C@@H](C)C(=O)NCC1C2=C(CC3C4C5=C(CC(C(C#N)N13)N4C)C(=O)C(C)=C(OC)C5=O)C(=O)C(C)=C(OC)C2=O` (stereo partly drawn) [N-n-Hexadecanoyl-Saframycin Y₃]: the IC50 came to 0.03 µg/mL (≈ 0.0374 µM).

For the compound `CCC(=O)N[C@@H](C)C(=O)NCC1C2=C(CC3C4C5=C(CC(C(C#N)N13)N4C)C(=O)C(C)=C(OC)C5=O)C(=O)C(C)=C(OC)C2=O` (stereo partly drawn) [N-Propionyl-Saframycin Y₃], the IC50 came to 0.02 µg/mL (≈ 0.0323 µM).

With `COC1=C(C)C(=O)C2=C(C1=O)C1C3CC4=C(C(=O)C(OC)=C(C)C4=O)C(CNC(=O)[C@H](C)NC(=O)Nc4cccc5ccccc45)N3C(C#N)C(C2)N1C` (stereo partly drawn) [N-α-Naphthylcarbamoyl-Saframycin Y₃], the IC50 stood at 0.08 µg/mL (≈ 0.109 µM).

Turning to `CCCCCCCC(=O)N[C@@H](C)C(=O)NCC1C2=C(CC3C4C5=C(CC(C(C#N)N13)N4C)C(=O)C(C)=C(OC)C5=O)C(=O)C(C)=C(OC)C2=O` (stereo partly drawn) [N-n-Octanoyl-Saframycin Y₃], the IC50 came out at 0.11 µg/mL (≈ 0.159 µM).

Take `COC1=C(C)C(=O)C2=C(C1=O)C1C3CC4=C(C(=O)C(OC)=C(C)C4=O)C(CNC(=O)[C@H](C)NC(C)C)N3C(C#N)C(C2)N1C` (stereo partly drawn) [N-Isopropyl-Saframycin Y₃]: the IC50 was 0.0018 µg/mL (≈ 0.00297 µM).

In the case of `CCN(CC)[C@@H](C)C(=O)NCC1C2=C(CC3C4C5=C(CC(C(C#N)N13)N4C)C(=O)C(C)=C(OC)C5=O)C(=O)C(C)=C(OC)C2=O` (stereo partly drawn) [N,N-Diäthyl-Saframycin Y₃], the IC50 is 0.0035 µg/mL (≈ 0.00565 µM).

In the case of `COC1=C(C)C(=O)C2=C(C1=O)C1C3CC4=C(C(=O)C(OC)=C(C)C4=O)C(CNC(=O)[C@H](C)NC(=O)C(C)(C)C)N3C(C#N)C(C2)N1C` (stereo partly drawn) [N-Pivaloyl-Saframycin Y₃], the IC50 stood at 0.01 µg/mL (≈ 0.0154 µM).

For `CCCN(CCC)[C@@H](C)C(=O)NCC1C2=C(CC3C4C5=C(CC(C(C#N)N13)N4C)C(=O)C(C)=C(OC)C5=O)C(=O)C(C)=C(OC)C2=O` (stereo partly drawn) [N,N-Dipropyl-Saframycin Y₃, N,N-Di-n-propyl-Saframycin Y₃], the IC50 came to 0.0015 µg/mL (≈ 0.00232 µM).

Take `COC1=C(C)C(=O)C2=C(C1=O)C1C3CC4=C(C(=O)C(OC)=C(C)C4=O)C(CNC(=O)[C@H](C)NC(=O)Nc4ccccc4)N3C(C#N)C(C2)N1C` (stereo partly drawn) [N-Phenylcarbamoyl-Saframycin Y₃]: the IC50 amounted to 0.04 µg/mL (≈ 0.0586 µM).

Turning to `CCCCCCCCCC(=O)N[C@@H](C)C(=O)NCC1C2=C(CC3C4C5=C(CC(C(C#N)N13)N4C)C(=O)C(C)=C(OC)C5=O)C(=O)C(C)=C(OC)C2=O` (stereo partly drawn) [N-n-Decanoyl-Saframycin Y₃], the IC50 was 0.11 µg/mL (≈ 0.153 µM).

As to `CCCCCC(=O)N[C@@H](C)C(=O)NCC1C2=C(CC3C4C5=C(CC(C(C#N)N13)N4C)C(=O)C(C)=C(OC)C5=O)C(=O)C(C)=C(OC)C2=O` (stereo partly drawn) [N-n-Hexanoyl-Saframycin Y₃], the IC50 was determined as 0.0075 µg/mL (≈ 0.0113 µM).

For the compound `COC1=C(C)C(=O)C2=C(C1=O)C1C3CC4=C(C(=O)C(OC)=C(C)C4=O)C(CNC(=O)[C@H](C)NC(=O)c4ccc(Br)cc4)N3C(C#N)C(C2)N1C` (stereo partly drawn) [N-p-Brombenzyol-Saframycin Y₃, N-p-Brombenzoyl-Saframycin Y₃], the IC50 stood at 0.01 µg/mL (≈ 0.0134 µM).

The values are drawn from patent EP0233841A1, “Quinone derivatives and process for their preparation” (Arai, Tadashi, Prof., priority 1986, dated 1987).
